Data reported in ChEMBL document CHEMBL4725368, “Novel C-7 carbon substituted fourth generation fluoroquinolones targeting N. Gonorrhoeae infections” (Bioorg Med Chem Lett, 2020).
In brackets after ≈: the same amount, converted by molar mass.

Assays:
in vitro = details: human, plasma
Description: Protein binding in human plasma assessed as free fraction

Staphylococcus aureus = assay: Antibacterial activity against Staphylococcus aureus ATCC 29213 assessed as reduction in bacterial growth by CLSI protocol based microdilution method; type: functional
physchem [1] = details: octanol/water, pH 7.4
Description: Distribution coefficient, logD of the compound at pH 7.4

physchem [2] = assay: physchem
Description: Kinetic solubility of the compound

Escherichia coli = assay: Antibacterial activity against Escherichia coli ATCC 25922 assessed as reduction in bacterial growth by CLSI protocol based microdilution method; type: functional
Cytochrome P450 3A4 = Cytochrome P450 3A4 (Homo sapiens, UniProt P08684)
Chain of Cytochrome P450 3A4 (P08684 whole entry): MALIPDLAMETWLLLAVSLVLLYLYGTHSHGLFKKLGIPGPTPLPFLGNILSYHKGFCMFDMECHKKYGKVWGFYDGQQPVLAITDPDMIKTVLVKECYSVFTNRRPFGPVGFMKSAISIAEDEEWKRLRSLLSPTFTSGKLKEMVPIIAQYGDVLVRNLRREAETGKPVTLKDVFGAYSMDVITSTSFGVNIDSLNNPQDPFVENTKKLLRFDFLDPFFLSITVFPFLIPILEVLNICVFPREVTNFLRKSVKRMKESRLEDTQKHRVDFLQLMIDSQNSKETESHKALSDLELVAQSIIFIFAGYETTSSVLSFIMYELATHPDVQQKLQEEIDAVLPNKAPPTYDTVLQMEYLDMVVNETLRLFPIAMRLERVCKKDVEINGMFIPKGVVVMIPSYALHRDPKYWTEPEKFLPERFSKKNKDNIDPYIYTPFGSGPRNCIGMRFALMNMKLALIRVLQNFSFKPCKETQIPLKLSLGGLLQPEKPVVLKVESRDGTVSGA
Description: Inhibition of CYP3A4 (unknown origin)

Cytochrome P450 2C19 = Cytochrome P450 2C19 (Homo sapiens, UniProt P33261)
Chain of Cytochrome P450 2C19 (P33261 whole entry): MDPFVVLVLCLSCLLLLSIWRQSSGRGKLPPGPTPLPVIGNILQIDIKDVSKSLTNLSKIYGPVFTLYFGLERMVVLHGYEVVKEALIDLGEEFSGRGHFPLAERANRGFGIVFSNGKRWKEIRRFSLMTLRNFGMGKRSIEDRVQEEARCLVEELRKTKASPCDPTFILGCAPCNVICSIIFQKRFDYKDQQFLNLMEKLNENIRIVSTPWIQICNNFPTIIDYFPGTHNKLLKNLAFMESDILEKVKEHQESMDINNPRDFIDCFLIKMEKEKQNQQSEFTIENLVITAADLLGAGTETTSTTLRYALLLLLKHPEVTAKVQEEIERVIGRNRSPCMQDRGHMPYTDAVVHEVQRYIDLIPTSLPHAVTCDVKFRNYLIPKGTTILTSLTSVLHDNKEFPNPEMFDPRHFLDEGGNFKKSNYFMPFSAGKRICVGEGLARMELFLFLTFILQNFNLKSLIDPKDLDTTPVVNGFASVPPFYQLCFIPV
Description: Inhibition of CYP2C19 (unknown origin)

Pseudomonas aeruginosa = assay: Antibacterial activity against Pseudomonas aeruginosa PAO1 assessed as reduction in bacterial growth by CLSI protocol based microdilution method; type: functional
Neisseria gonorrhoeae [3] = assay: Antibacterial activity against fluoroquinolone-resistant Neisseria gonorrhoeae WHO L harboring multiple point mutations at DNA gyrase and topoisomerase IV and porB1b mutation assessed as reduction in bacterial growth by CLSI protocol based microdilution method; type: functional
Acinetobacter baumannii = assay: Antibacterial activity against Acinetobacter baumannii ATCC 19606 assessed as reduction in bacterial growth by CLSI protocol based microdilution method; type: functional; details: ATCC 19606 = CIP 70.34 = JCM 6841
hERG (KCNH2) [4] = biological target: T1, hERG (KCNH2) (Homo sapiens, UniProt Q12809); assay: Inhibition of human ERG at 30 uM relative to control
T1 sequence (Q12809 whole entry): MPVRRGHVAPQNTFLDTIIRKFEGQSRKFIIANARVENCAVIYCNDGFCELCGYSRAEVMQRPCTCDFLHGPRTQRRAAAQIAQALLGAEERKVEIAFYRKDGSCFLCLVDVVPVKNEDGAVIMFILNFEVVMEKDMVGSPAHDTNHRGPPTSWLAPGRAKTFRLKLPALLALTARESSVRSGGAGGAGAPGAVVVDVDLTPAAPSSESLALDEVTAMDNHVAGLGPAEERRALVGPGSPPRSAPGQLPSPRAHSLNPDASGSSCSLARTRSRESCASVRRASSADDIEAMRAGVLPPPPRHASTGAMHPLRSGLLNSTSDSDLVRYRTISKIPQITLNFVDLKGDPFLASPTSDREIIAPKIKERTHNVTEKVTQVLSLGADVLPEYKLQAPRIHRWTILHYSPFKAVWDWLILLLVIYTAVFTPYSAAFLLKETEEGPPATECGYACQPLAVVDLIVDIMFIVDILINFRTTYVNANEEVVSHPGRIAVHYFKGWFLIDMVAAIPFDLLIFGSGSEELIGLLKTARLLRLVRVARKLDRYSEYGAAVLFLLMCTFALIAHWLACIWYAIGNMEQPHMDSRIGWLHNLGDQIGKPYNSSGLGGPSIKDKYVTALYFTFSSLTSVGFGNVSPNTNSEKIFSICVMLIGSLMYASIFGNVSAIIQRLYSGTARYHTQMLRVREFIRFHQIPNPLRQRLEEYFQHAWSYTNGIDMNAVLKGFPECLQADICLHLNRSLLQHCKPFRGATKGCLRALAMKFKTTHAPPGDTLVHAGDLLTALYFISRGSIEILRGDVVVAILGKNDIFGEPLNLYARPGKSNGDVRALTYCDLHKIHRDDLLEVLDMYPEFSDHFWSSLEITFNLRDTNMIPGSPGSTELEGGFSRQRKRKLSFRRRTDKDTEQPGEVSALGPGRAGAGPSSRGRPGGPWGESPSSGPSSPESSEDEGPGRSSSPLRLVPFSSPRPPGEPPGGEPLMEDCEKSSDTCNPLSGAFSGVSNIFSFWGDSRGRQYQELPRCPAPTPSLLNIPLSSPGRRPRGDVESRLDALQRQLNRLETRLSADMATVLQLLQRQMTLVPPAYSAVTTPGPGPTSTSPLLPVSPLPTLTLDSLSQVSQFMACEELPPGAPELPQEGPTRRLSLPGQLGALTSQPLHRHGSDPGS

Cytochrome P450 1A2 = biological target: T2, Cytochrome P450 1A2 (Homo sapiens, UniProt P05177)
T2 sequence (P05177 whole entry): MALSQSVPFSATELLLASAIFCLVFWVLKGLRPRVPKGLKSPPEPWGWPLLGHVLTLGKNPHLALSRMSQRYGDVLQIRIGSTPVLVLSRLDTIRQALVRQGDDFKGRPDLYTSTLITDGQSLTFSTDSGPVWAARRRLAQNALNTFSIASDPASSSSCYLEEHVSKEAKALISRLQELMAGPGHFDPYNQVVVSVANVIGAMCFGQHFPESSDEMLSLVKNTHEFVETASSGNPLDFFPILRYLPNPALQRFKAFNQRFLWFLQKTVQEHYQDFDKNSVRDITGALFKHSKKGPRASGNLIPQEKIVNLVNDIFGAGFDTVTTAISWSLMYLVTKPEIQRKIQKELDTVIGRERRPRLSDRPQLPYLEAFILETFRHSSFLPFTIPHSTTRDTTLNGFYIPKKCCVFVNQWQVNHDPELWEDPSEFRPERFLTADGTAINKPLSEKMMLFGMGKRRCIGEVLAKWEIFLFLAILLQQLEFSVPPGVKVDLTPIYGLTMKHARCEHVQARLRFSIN
Description: Inhibition of CYP1A2 (unknown origin)

[5] = Intrinsic clearance in human liver microsomes; type: ADME, Microsome; details: read-out: CLH
Cytochrome P450 2C9 = Cytochrome P450 2C9 (Homo sapiens, UniProt P11712)
Chain of Cytochrome P450 2C9 (P11712 whole entry): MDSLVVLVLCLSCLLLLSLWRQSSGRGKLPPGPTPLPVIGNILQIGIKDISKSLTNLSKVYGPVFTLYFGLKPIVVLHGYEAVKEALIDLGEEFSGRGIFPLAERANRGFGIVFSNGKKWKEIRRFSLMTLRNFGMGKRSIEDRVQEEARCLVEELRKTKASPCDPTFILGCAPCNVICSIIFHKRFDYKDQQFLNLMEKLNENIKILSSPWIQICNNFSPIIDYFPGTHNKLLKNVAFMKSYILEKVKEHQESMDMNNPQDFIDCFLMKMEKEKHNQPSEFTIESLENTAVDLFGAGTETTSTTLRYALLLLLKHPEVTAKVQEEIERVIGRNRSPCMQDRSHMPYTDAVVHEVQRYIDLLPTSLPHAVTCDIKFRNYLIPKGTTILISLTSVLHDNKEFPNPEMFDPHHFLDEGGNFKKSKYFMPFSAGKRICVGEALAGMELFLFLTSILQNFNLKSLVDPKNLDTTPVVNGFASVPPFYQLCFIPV
Description: Inhibition of CYP2C9 (unknown origin)

Enterococcus faecalis = assay: Antibacterial activity against Enterococcus faecalis ATCC 29212 assessed as reduction in bacterial growth by CLSI protocol based microdilution method; type: functional
[6] = Intrinsic clearance in human hepatocytes assessed per 10^6 cells; type: ADME, cell-based, Hepatocyte; details: read-out: CLH
Cytochrome P450 2D6 = Cytochrome P450 2D6 (Homo sapiens, UniProt P10635)
Chain of Cytochrome P450 2D6 (P10635 whole entry): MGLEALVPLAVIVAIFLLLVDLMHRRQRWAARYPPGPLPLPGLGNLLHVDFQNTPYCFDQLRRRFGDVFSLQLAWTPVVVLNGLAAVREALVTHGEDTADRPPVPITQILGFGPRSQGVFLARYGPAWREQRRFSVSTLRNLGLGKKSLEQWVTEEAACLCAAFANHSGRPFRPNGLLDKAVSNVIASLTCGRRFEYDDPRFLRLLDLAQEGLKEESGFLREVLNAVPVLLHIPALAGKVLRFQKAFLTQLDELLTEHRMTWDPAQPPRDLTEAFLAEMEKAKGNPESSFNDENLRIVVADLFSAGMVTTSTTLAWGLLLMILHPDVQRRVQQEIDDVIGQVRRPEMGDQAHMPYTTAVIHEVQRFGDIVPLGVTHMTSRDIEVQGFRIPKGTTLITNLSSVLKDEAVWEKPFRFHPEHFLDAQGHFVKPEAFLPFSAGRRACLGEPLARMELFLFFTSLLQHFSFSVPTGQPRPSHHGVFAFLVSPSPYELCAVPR
Description: Inhibition of CYP2D6 (unknown origin)

Klebsiella pneumoniae = assay: Antibacterial activity against Klebsiella pneumoniae ATCC 700603 assessed as reduction in bacterial growth by CLSI protocol based microdilution method; type: functional
[7] = Acid dissociation constant, pKa of the compound; type: physicochemical
Neisseria gonorrhoeae [8] = assay: Antibacterial activity against Neisseria gonorrhoeae ATCC 49226 assessed as reduction in bacterial growth by CLSI protocol based microdilution method; type: functional
hERG (KCNH2) [9] = biological target: T1, hERG (KCNH2); assay: Inhibition of human ERG at 100 uM relative to control
[10] = Oral bioavailability in human at 450 mg measured every 12 hrs; type: ADME, organism-based; details: in vivo
Neisseria gonorrhoeae [11] = assay: Antibacterial activity against Neisseria gonorrhoeae assessed as reduction in bacterial growth; type: functional
[12] = biological target: Voltage-gated inwardly rectifying potassium channel KCNH2 (Homo sapiens, UniProt Q12809); assay: Inhibition of human ERG up to 185 uM
Chain of Voltage-gated inwardly rectifying potassium channel KCNH2 (Q12809 whole entry): as the sequence (Q12809 whole entry) above

[13] = Oral bioavailability in human at 400 mg measured every 12 hrs; type: ADME, organism-based; details: in vivo

## Nc1nc(-n2cc(C(=O)O)c(=O)c3cc(F)c(N4CC(N)C4)c(Cl)c32)c(F)cc1F
In vitro
  fraction unbound: 0.297
Staphylococcus aureus
  MIC: 0.003 µg/mL (≈ 0.00682 µM)
Physchem [1]
  logD: -0.3
Physchem [2]
  solubility kinetic: 3.6 µM (≈ 1.58 µg/mL)
Escherichia coli
  MIC: 0.001 µg/mL (≈ 0.00227 µM)
Cytochrome P450 3A4
  IC50: 13.6 µM
Cytochrome P450 2C19
  IC50: > 50 µM
Pseudomonas aeruginosa
  MIC: 0.12 µg/mL (≈ 0.273 µM)
Neisseria gonorrhoeae [3]
  MIC: 0.06 µg/mL (≈ 0.136 µM)
Acinetobacter baumannii
  MIC: 2 µg/mL (≈ 4.55 µM)
hERG (KCNH2) [4]
  inhibition at 30 µM: 6%
Cytochrome P450 1A2
  IC50: > 50 µM
[5]
  microsomal CLint: < 5 µL/min/mg
Cytochrome P450 2C9
  IC50: 12.7 µM
Enterococcus faecalis
  MIC: 0.12 µg/mL (≈ 0.273 µM)
[6]
  hepatocyte CLint: 3 µL/min/1e6 cells
Cytochrome P450 2D6
  IC50: > 50 µM
Klebsiella pneumoniae
  MIC: 0.25 µg/mL (≈ 0.568 µM)
[7]
  pKa: 5.33
Neisseria gonorrhoeae [8]
  MIC: 0.007 µg/mL (≈ 0.0159 µM)

## Nc1nc(-n2cc(C(=O)O)c(=O)c3cc(F)c([C@H]4C[C@H](O)C4)c(Cl)c32)c(F)cc1F
hERG (KCNH2) [9]
  inhibition at 100 µM: 18%
In vitro
  fraction unbound: 0.105
Staphylococcus aureus
  MIC: 0.03 µg/mL (≈ 0.0682 µM)
Physchem [1]
  logD: 0.3
Physchem [2]
  solubility kinetic: 59.3 µM (≈ 26.1 µg/mL)
Escherichia coli
  MIC: 0.12 µg/mL (≈ 0.273 µM)
Cytochrome P450 3A4
  IC50: > 50 µM
Cytochrome P450 2C19
  IC50: > 50 µM
Pseudomonas aeruginosa
  MIC: 2 µg/mL (≈ 4.55 µM)
Neisseria gonorrhoeae [3]
  MIC: 0.12 µg/mL (≈ 0.273 µM)
Acinetobacter baumannii
  MIC: 64 µg/mL (≈ 146 µM)
Cytochrome P450 1A2
  IC50: > 50 µM
[5]
  microsomal CLint: < 5 µL/min/mg
Cytochrome P450 2C9
  IC50: 41.7 µM
Enterococcus faecalis
  MIC: 0.5 µg/mL (≈ 1.14 µM)
[6]
  hepatocyte CLint: 6.8 µL/min/1e6 cells
Cytochrome P450 2D6
  IC50: > 50 µM
Klebsiella pneumoniae
  MIC: 8 µg/mL (≈ 18.2 µM)
[7]
  pKa: 5.04
Neisseria gonorrhoeae [8]
  MIC: 0.01 µg/mL (≈ 0.0227 µM)

## Nc1nc(-n2cc(C(=O)O)c(=O)c3cc(F)c([C@H]4C[C@@H](O)C4)c(Cl)c32)c(F)cc1F
hERG (KCNH2) [9]
  inhibition at 100 µM: 15%
In vitro
  fraction unbound: 0.124
Staphylococcus aureus
  MIC: 0.03 µg/mL (≈ 0.0682 µM)
Physchem [1]
  logD: 0.3
Physchem [2]
  solubility kinetic: 44.8 µM (≈ 19.7 µg/mL)
Escherichia coli
  MIC: 0.12 µg/mL (≈ 0.273 µM)
Cytochrome P450 3A4
  IC50: 24.8 µM
Cytochrome P450 2C19
  IC50: > 50 µM
Pseudomonas aeruginosa
  MIC: 4 µg/mL (≈ 9.1 µM)
Neisseria gonorrhoeae [3]
  MIC: 0.12 µg/mL (≈ 0.273 µM)
Acinetobacter baumannii
  MIC: 16 µg/mL (≈ 36.4 µM)
Cytochrome P450 1A2
  IC50: > 50 µM
[5]
  microsomal CLint: < 5 µL/min/mg
Cytochrome P450 2C9
  IC50: > 50 µM
Enterococcus faecalis
  MIC: 0.25 µg/mL (≈ 0.568 µM)
[6]
  hepatocyte CLint: 9.2 µL/min/1e6 cells
Cytochrome P450 2D6
  IC50: > 50 µM
Klebsiella pneumoniae
  MIC: 4 µg/mL (≈ 9.1 µM)
[7]
  pKa: 4.96
Neisseria gonorrhoeae [8]
  MIC: 0.06 µg/mL (≈ 0.136 µM)

## Nc1nc(-n2cc(C(=O)O)c(=O)c3cc(F)c(N4CC(O)C4)c(Cl)c32)c(F)cc1F [DELAFLOXACIN]
hERG (KCNH2) [9]
  inhibition at 100 µM: 19%
In vitro
  fraction unbound: 0.149
Staphylococcus aureus
  MIC: 0.003 µg/mL (≈ 0.00681 µM)
Physchem [1]
  logD: 0.7
Physchem [2]
  solubility kinetic: 58.1 µM (≈ 25.6 µg/mL)
[10]
  bioavailability: 59%
Escherichia coli
  MIC: 0.01 µg/mL (≈ 0.0227 µM)
Cytochrome P450 2C19
  IC50: > 50 µM
Pseudomonas aeruginosa
  MIC: 1 µg/mL (≈ 2.27 µM)
Neisseria gonorrhoeae [3]
  MIC: 0.03 µg/mL (≈ 0.0681 µM)
Acinetobacter baumannii
  MIC: 8 µg/mL (≈ 18.2 µM)
Neisseria gonorrhoeae [11]
  MIC: ≥ 0.008 µg/mL
  MIC90: 0.125 µg/mL (≈ 0.284 µM)
Cytochrome P450 1A2
  IC50: > 50 µM
[5]
  microsomal CLint: < 5 µL/min/mg
Cytochrome P450 2C9
  IC50: > 50 µM
Enterococcus faecalis
  MIC: 0.03 µg/mL (≈ 0.0681 µM)
[6]
  hepatocyte CLint: 3 µL/min/1e6 cells
Cytochrome P450 2D6
  IC50: > 50 µM
Klebsiella pneumoniae
  MIC: 0.25 µg/mL (≈ 0.567 µM)
[12]
  inhibition (INH): Not Active
[7]
  pKa: 5.47
Neisseria gonorrhoeae [8]
  MIC: 0.06 µg/mL (≈ 0.136 µM)

## COc1c(N2C[C@@H]3CCCN[C@@H]3C2)c(F)cc2c(=O)c(C(=O)O)cn(C3CC3)c12 [MOXIFLOXACIN]
[13]
  bioavailability: 92%
